We go through four molecules from paper PMC10709440, “High-throughput ligand profile characterization in novel cell lines expressing seven heterologous insect olfactory receptors for the detection of volatile plant biomarkers” (Scientific Reports, 2023).

Like-named read-outs stand apart in the source and are kept apart here.

Assay [1] deals with T1, Drosophila OR13a (Drosophila melanogaster, UniProt Q9VXL0).
T1 construct: expressed in transfected cells
T1 sequence (Q9VXL0 1-418): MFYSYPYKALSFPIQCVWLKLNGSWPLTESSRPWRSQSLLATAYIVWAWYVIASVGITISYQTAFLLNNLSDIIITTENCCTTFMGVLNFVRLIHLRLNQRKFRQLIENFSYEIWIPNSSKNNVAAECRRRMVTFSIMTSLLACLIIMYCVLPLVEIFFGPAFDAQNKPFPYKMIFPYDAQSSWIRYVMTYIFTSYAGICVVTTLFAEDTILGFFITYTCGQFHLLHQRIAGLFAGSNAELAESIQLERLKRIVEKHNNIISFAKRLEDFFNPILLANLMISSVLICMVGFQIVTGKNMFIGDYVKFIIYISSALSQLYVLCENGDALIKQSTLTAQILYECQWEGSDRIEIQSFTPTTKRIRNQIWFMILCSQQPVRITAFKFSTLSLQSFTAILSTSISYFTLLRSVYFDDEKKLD
T1 sequence (Q9VNB5 1-486 partner): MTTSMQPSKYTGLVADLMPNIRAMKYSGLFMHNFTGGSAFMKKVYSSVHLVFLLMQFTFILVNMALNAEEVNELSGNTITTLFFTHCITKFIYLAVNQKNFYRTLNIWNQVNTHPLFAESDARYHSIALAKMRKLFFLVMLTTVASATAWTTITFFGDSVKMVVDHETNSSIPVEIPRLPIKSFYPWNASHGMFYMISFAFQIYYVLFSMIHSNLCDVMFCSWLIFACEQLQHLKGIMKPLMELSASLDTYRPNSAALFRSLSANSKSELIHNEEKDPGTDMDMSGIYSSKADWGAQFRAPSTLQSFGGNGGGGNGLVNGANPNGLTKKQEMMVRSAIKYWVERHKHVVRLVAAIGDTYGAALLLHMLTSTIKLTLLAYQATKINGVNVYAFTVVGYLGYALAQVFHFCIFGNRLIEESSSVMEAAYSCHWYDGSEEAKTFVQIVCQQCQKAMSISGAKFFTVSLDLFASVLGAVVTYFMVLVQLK
The assay is described as follows: Calcium ion fluorescence (GCaMP6) assay, OR13a stable HEK293 cell line. It is filed as cell-based. On the procedure:
(§1) These VUAA1 normalized ∆F values were used to compare the different receptors and ligands.
(§2) The concentration-dependent effect of the reference ligands on their cognate cell lines was examined in more detail. Twelve different ligand concentrations were measured on each cell line in an overall 0.01 μM to 100 μM concentration range with 5 repetitions with three technical replicates each time.
(§3) Twelve thousand to 18,000 cells were plated into each well of a black wall, transparent bottom 384-well microplate (Greiner) 48 h or 72 h before the measurements and were simultaneously treated with 1 μg/mL doxycycline. […] The plate has 24 columns, thus we could record responses in up to eight different cell lines in each plate. On the day of the experiment, the growth medium was replaced with 20 µL assay buffer/well (140 mM NaCl, 5 mM KCl, 2 mM CaCl2, 1 mM MgCl2, 5 mM HEPES-Na, 20 mM glucose, pH 7.3, 340 mOsm). […] Baseline fluorescence (F0) was recorded for 5 s, after which 7 µL VOC buffer (140 mM NaCl, 5 mM KCl, 2 mM CaCl2, 1 mM MgCl2, 5 mM HEPES-Na, 31 mM glucose, 0.1% DMSO, pH 7.3, 340 mOsm) was injected into each well in one row and the fluorescence response was recorded for an additional 30 s, at a rate of one read/sec. VOC solutions (VOC buffer with 4× concentration of the final measured VOC concentration, 9 µL/well was injected) were measured on the same wells in a second round with the same protocol. Each individual concentration of a specific VOC sample was recorded in three wells for the same cell line on the same microplate. The raw data were exported in xls file format, F0 and FMAX values, and the fluorescence intensity changes (∆F) were calculated in Excel (Microsoft) (Supplementary file Data summary.xlsx) using the following equation: ΔF=FMAX-F0/F0 (see also Fig. 1C). On each plate, we recorded the response of each cell line to 50 µM VUAA1. The average of these ∆F values of each cell line were used to calculate the VUAA1-normalized values for the rest of the plate, by dividing VOC response ∆F values by the average VUAA1 response ∆F value of the corresponding OR cell line. Each VOC-OR combination was measured three times as technical replicates. […] The average of these replicates were used as one ∆F and VUAA1-normalized ∆F in the following analysis.
(§4) In the next rows we tested the reference VOCs (or other VOCs known to activate the corresponding cell lines), in order to test if all cell lines are responsive. The remaining rows were used to test VOCs with unknown effect.
(§5) The recorded FMAX, F0, ∆F, VUAA1-normalized ∆F values, as well as the OR name, the name of the tested sample, and the final concentration for each well were copied into supplementary file Data summary.xlsx, that was used to summarize all the plates recorded. Here, the averages of the measurements were calculated for each receptor-VOC-concentration combination.

Assay [2] concerns the target T2, Drosophila OR49b (Drosophila melanogaster, UniProt Q9V6H2).
T2 construct: expressed in transfected cells
T2 sequence (Q9V6H2 1-375): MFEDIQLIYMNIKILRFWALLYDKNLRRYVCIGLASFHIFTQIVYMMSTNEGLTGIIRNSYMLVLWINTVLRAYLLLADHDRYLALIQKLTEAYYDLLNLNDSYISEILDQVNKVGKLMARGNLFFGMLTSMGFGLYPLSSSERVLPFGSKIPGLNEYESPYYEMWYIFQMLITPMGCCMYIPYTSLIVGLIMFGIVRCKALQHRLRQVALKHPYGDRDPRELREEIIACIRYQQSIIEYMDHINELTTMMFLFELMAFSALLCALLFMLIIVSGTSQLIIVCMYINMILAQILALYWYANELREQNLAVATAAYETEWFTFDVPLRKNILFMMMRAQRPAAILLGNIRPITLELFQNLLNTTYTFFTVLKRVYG
T2 sequence (Q9VNB5 1-486 partner): T1 sequence (Q9VNB5 1-486 partner)
Description: cell-based. The conditions noted are these: for Average response: mean of biological replicates; for activation at 1 µM / activation at 10 µM / activation at 100 µM: HEK293; for DF norm AVERAGE OR49b: threshold 0.05, below shown as 0. As to the method: as §1, §2, §3, §4, §5

The mark [3] stands for this setting: 1 μM VOC, 50 μM VUAA1 = 1, responses not exceeding 0.05 considered 0.
[4] abbreviates: 10 μM VOC, 50 μM VUAA1 = 1, responses not exceeding 0.05 considered 0.
[5] abbreviates: 100 μM VOC, 50 μM VUAA1 = 1, responses not exceeding 0.05 considered 0.
The mark [6] stands for this setting: concentration 1, normalized fluorescence change, values below 0.05 threshold given as 0.
Setting [7] is: concentration 10, normalized fluorescence change, values below 0.05 threshold given as 0.
The mark [8] stands for this setting: concentration 100, normalized fluorescence change, values below 0.05 threshold given as 0.
The mark [9] stands for this setting: OR49b cell line, odorant cc. 1 µM.
[10] abbreviates: OR49b cell line, odorant cc. 10 µM.
[11] abbreviates: OR49b cell line, odorant cc. 100 µM.
Where [12] appears, read: HEK293, read-out: OR13a Average response (VUAA1-normalized), 1 μM VOC, 50 μM VUAA1 = 1, responses not exceeding 0.05 considered 0.
[13] abbreviates: HEK293, read-out: OR13a Average response (VUAA1-normalized), 10 μM VOC, 50 μM VUAA1 = 1, responses not exceeding 0.05 considered 0.
Where [14] appears, read: HEK293, read-out: OR13a Average response (VUAA1-normalized), 100 μM VOC, 50 μM VUAA1 = 1, responses not exceeding 0.05 considered 0.

For the molecule (-)-alpha-cedrene, the “OR13a Average response (VUAA1-normalized)” value in assay [1] (setting [3]), in assay [1] (setting [4]) and in assay [1] (setting [5]) was 0.00 each time. Also, the “OR13a response (VUAA1-normalized response)” value in assay [1] (VOC concentration 1 μM), in assay [1] (VOC concentration 10 μM) and in assay [1] (VOC concentration 100 μM) was 0.00 in each case. Moreover, the “DF norm AVERAGE OR13a” value in assay [1] (setting [6]), in assay [1] (setting [7]) and in assay [1] (setting [8]) was 0 throughout. The Average response in assay [2] (setting [9]) came out at 0.00; in assay [2] (setting [10]), 0.0843; in assay [2] (setting [11]), 0.00. In addition, the “OR49b response (VUAA1-normalized response)” value in assay [2] (VOC concentration 1 μM) turned out to be 0.00; in assay [2] (VOC concentration 10 μM), 0.0843; in assay [2] (VOC concentration 100 μM) it was 0.00.

In the case of `Cc1ccc(C)cc1` [p-xylene], the activation at 1 µM stood at 0% in assay [1] (setting [12]) and 0% in assay [2] (1 μM VOC, 50 μM VUAA1 = 1, read-out: OR49b Average response (VUAA1-normalized)). Besides, the activation at 10 µM in assay [1] (setting [13]) was found to be 0%; in assay [2] (10 μM VOC, 50 μM VUAA1 = 1, read-out: OR49b Average response (VUAA1-normalized)) it was 3%. Further, the activation at 100 µM in assay [1] (setting [14]) came to 2.5%; in assay [2] (100 μM VOC, 50 μM VUAA1 = 1, read-out: OR49b Average response (VUAA1-normalized)), 38%. In assay [1] (OR13a cell line, VOC concentration 1 μM), the “OR13a response (VUAA1-normalized) at 1 μM” value stood at 0.00. In addition, the “OR13a response (VUAA1-normalized) at 10 μM” value in assay [1] (OR13a cell line, VOC concentration 10 μM) amounted to 0.00. In assay [1] (OR13a cell line, VOC concentration 100 μM), the “OR13a response (VUAA1-normalized) at 100 μM” value is recorded as 0.00. Besides, the “DF norm AVERAGE OR13a” value in assay [1] (ligand concentration 1 (unit not given), threshold 0.05, below shown as 0) is on record as 0; in assay [1] (ligand concentration 10 (unit not given), threshold 0.05, below shown as 0), 0; in assay [1] (ligand concentration 100 (unit not given), threshold 0.05, below shown as 0), 0. The “OR49b response (VUAA1-normalized) at 1 μM” value in assay [2] (OR49b cell line, VOC concentration 1 μM) was found to be 0.00. The “OR49b response (VUAA1-normalized) at 10 μM” value in assay [2] (OR49b cell line, VOC concentration 10 μM) is 0.00. Also, in assay [2] (OR49b cell line, VOC concentration 100 μM), the “OR49b response (VUAA1-normalized) at 100 μM” value is on record as 0.38. Besides, the figures for the Average response in assay [2] (setting [9]), in assay [2] (setting [10]) and in assay [2] (setting [11]) were 0.00, 0.033 and 0.38, respectively. Moreover, the “DF norm AVERAGE OR49b” value in assay [2] (ligand concentration 1 (unit not given)) is reported as 0; in assay [2] (ligand concentration 10 (unit not given)), 0; in assay [2] (ligand concentration 100 (unit not given)) it was 0.379.

For the molecule `CCCCCC(C)O` (stereo not drawn) [2-heptanol], the activation at 1 µM in assay [1] (setting [12]) came out at 4%; in assay [1] (HEK293, read-out: OR13a response (VUAA1-normalized response), VOC concentration 1 μM), 0%; in assay [2] (VOC concentration 1 μM, read-out: OR49b response (VUAA1-normalized response)), 0%. Further, the activation at 10 µM turned out to be 0% in assay [1] (setting [13]); 0% in assay [1] (HEK293, read-out: OR13a response (VUAA1-normalized response), VOC concentration 10 μM); 0% in assay [2] (VOC concentration 10 μM, read-out: OR49b response (VUAA1-normalized response)). Also, the activation at 100 µM in assay [1] (setting [14]) was 8%; in assay [1] (HEK293, read-out: OR13a response (VUAA1-normalized response), VOC concentration 100 μM) it was 8%; in assay [2] (VOC concentration 100 μM, read-out: OR49b response (VUAA1-normalized response)) it was 6.51%. The entries for the “DF norm AVERAGE OR13a” value in assay [1] (setting [6]), in assay [1] (setting [7]) and in assay [1] (setting [8]) were 0, 0 and 0.07697, respectively. Besides, the Average response stood at 0.00 in assay [2] (setting [9]), 0.00 in assay [2] (setting [10]) and 0.0651 in assay [2] (setting [11]).

As for `C=C1[C@H]2CC[C@@H]3[C@H]2C(C)(C)CCC[C@]13C` [(+)-longifolene], the “OR13a Average response (VUAA1-normalized)” value in assay [1] (setting [3]) came to 0.00; in assay [1] (setting [4]), 0.037; in assay [1] (setting [5]), 0.00. The “OR13a response (VUAA1-normalized response)” value in assay [1] (VOC concentration 1 μM), in assay [1] (VOC concentration 10 μM) and in assay [1] (VOC concentration 100 μM) was 0.00 in each case. In addition, the “DF norm AVERAGE OR13a” value in assay [1] (setting [6]), in assay [1] (setting [7]) and in assay [1] (setting [8]) was 0 throughout. Further, the Average response was 0.08 in assay [2] (setting [9]), 0.00 in assay [2] (setting [10]) and 0.00 in assay [2] (setting [11]). For the same molecule, the “OR49b response (VUAA1-normalized response)” value in assay [2] (VOC concentration 1 μM) worked out at 0.08; in assay [2] (VOC concentration 10 μM) it was 0.00; in assay [2] (VOC concentration 100 μM), 0.00.
